Measurements: patent US10329303B2, “Heterocyclic inhibitors of monocarboxylate transporter” (THE SCRIPPS RESEARCH INSTITUTE, priority 2015, dated 2019)

These compounds were tested on Raji (Burkitt's) lymphoma cells (assay: MTT assay for 4-day viability of Raji (Burkitt's) lymphoma cells). Conditions: Homo sapiens, 96 h, Raji cells (highly express MCT1), read-out: approximate potency (EC50).
Assay type: cell-based
Source text: Specific Examples 1-52 of compounds of the invention, with estimated EC50 values determined using an MTT assay for 4-day viability of Raji (Burkitt's) lymphoma cells, a cell line known to highly express MCT1 and to be sensitive to small molecule MCT inhibitors,^4 are shown in Table 2. Assay protocols follow those described in the literature.^4 Other assays that are not described here but that are standard in the field, such as an assay for competitive inhibition of transport of radiolabeled lactic acid, an MCT substrate, may also be useful in establishing mechanism of action of these compounds.

First: Cc1n[nH]c(C)c1Cc1sc2c(c1-c1cccc(C(C)O)c1)c(=O)n(C)c(=O)n2CC(C)C (stereo not shown) [Example 13, 6-((3,5-dimethyl-1H-pyrazol-4-yl)methyl)-5-(3-(1-hydroxyethyl)phenyl)-1-isobutyl-3-methylthieno[2,3-d]pyrimidine-2,4(1H,3H)-dione]
Second: Cc1n[nH]c(C)c1Cc1sc2c(c1-c1cccc(C(O)C(F)(F)F)c1)c(=O)n(C)c(=O)n2CC(C)C (stereo not shown) [Example 14, 6-((3,5-dimethyl-1H-pyrazol-4-yl)methyl)-1-isobutyl-3-methyl-5-(3-(2,2,2-trifluoro-1-hydroxyethyl)phenyl)thieno[2,3-d]pyrimidine-2,4(1H,3H)-dione]
The EC50 of the first is higher: 50 nM for the first, under 20 nM for the second.

Compared with `Cc1n[nH]c(C)c1Cc1sc2c(c1-c1cccc(CO)c1)c(=O)n(C)c(=O)n2CC(C)C` [Example 15, 6-((3,5-dimethyl-1H-pyrazol-4-yl)methyl)-5-(3-(hydroxymethyl)phenyl)-1-isobutyl-3-methylthieno[2,3-d]pyrimidine-2,4(1H,3H)-dione], `Cc1n[nH]c(C)c1Cc1sc2c(c1-c1cccc(CO)c1)c(=O)n(C1CC1)c(=O)n2CC(C)C` [Example 24, 3-cyclopropyl-6-((3,5-dimethyl-1H-pyrazol-4-yl)methyl)-5-(3-(hydroxymethyl)phenyl)-1-isobutylthieno[2,3-d]pyrimidine-2,4(1H,3H)-dione] is higher in EC50: under 20 nM for the first, 1000 nM for the second.

Compared with `Cc1n[nH]c(C)c1Cc1sc2c(c1-c1ccc(F)c(CO)c1)c(=O)n(C1CC1)c(=O)n2CC(C)C` [Example 16, 3-cyclopropyl-6-((3,5-dimethyl-1H-pyrazol-4-yl)methyl)-5-(4-fluoro-3-(hydroxymethyl)phenyl)-1-isobutylthieno[2,3-d]pyrimidine-2,4(1H,3H)-dione], `Cc1n[nH]c(C)c1Cc1sc2c(c1-c1cc(F)c(F)c(CO)c1)c(=O)n(C1CC1)c(=O)n2CC(C)C` [Example 18, 3-cyclopropyl-5-(3,4-difluoro-5-(hydroxymethyl)phenyl)-6-((3,5-dimethyl-1H-pyrazol-4-yl)methyl)-1-isobutylthieno[2,3-d]pyrimidine-2,4(1H,3H)-dione] is 4.1-fold higher in EC50: 220 nM for the first, 900 nM for the second.

`Cc1cc(CO)c(F)c(-c2c(Cc3c(C)n[nH]c3C)sc3c2c(=O)n(C2CC2)c(=O)n3CC(C)C)c1` [Example 17, 3-cyclopropyl-6-((3,5-dimethyl-1H-pyrazol-4-yl)methyl)-5-(2-fluoro-3-(hydroxymethyl)-5-methylphenyl)-1-isobutylthieno[2,3-d]pyrimidine-2,4(1H,3H)-dione] and `Cc1n[nH]c(C)c1Cc1sc2c(c1-c1cc(CO)c(F)cc1F)c(=O)n(C1CC1)c(=O)n2CC(C)C` [Example 19, 3-cyclopropyl-5-(2,4-difluoro-5-(hydroxymethyl)phenyl)-6-((3,5-dimethyl-1H-pyrazol-4-yl)methyl)-1-isobutylthieno[2,3-d]pyrimidine-2,4(1H,3H)-dione] are within 1.5-fold of each other in EC50: 100 nM for the first, 70 nM for the second.

`Cc1n[nH]c(C)c1Cc1sc2c(c1-c1cccc(CO)c1F)c(=O)n(C1CC1)c(=O)n2CC(C)C` [Example 20, 3-cyclopropyl-6-((3,5-dimethyl-1H-pyrazol-4-yl)methyl)-5-(2-fluoro-3-(hydroxymethyl)phenyl)-1-isobutylthieno[2,3-d]pyrimidine-2,4(1H,3H)-dione] and `Cc1n[nH]c(C)c1Cc1sc2c(c1-c1cc(CO)ccc1F)c(=O)n(C1CC1)c(=O)n2CC(C)C` [Example 22, 3-cyclopropyl-6-((3,5-dimethyl-1H-pyrazol-4-yl)methyl)-5-(2-fluoro-5-(hydroxymethyl)phenyl)-1-isobutylthieno[2,3-d]pyrimidine-2,4(1H,3H)-dione] cannot be ordered by EC50: at most 20 nM for the first, at most 20 nM for the second.

First: Cc1n[nH]c(C)c1Cc1sc2c(c1-c1ccnc(CO)c1)c(=O)n(C1CC1)c(=O)n2CC(C)C [Example 23, 3-cyclopropyl-6-((3,5-dimethyl-1H-pyrazol-4-yl)methyl)-5-(2-(hydroxymethyl)pyridin-4-yl)-1-isobutylthieno[2,3-d]pyrimidine-2,4(1H,3H)-dione]
Second: CC(C)Cc1nn(C)c(=O)c2c(-c3ncc(CO)s3)n(Cc3cccc4ccccc34)cc12 [Example 25, 7-(5-(hydroxymethyl)thiazol-2-yl)-4-isobutyl-2-methyl-6-(naphthalen-1-ylmethyl)-2,6-dihydro-1H-pyrrolo[3,4-d]pyridazin-1-one]
The EC50 of the first is lower: at most 20 nM for the first, 300 nM for the second.

`CC(C)Cc1nn(C)c(=O)c2c(-c3csc(CO)n3)n(Cc3cccc4ccccc34)cc12` [Example 26, 7-(2-(hydroxymethyl)thiazol-4-yl)-4-isobutyl-2-methyl-6-(naphthalen-1-ylmethyl)-2,6-dihydro-1H-pyrrolo[3,4-d]pyridazin-1-one] and `CC(C)Cc1nn(C)c(=O)c2c(-c3csc(C(O)C(F)(F)F)n3)n(Cc3cccc4ccccc34)cc12` (stereo not shown) [Example 37, 4-isobutyl-2-methyl-6-(naphthalen-1-ylmethyl)-7-(2-(2,2,2-trifluoro-1-hydroxyethyl)thiazol-4-yl)-2,6-dihydro-1H-pyrrolo[3,4-d]pyridazin-1-one] are within 1.5-fold of each other in EC50: 90 nM for the first, 100 nM for the second.

Compared with `CC(C)Cc1nn(C)c(=O)c2c(-c3ccc(F)c(CO)c3F)n(Cc3cccc4ccccc34)cc12` [Example 27, 7-(2,4-difluoro-3-(hydroxymethyl)phenyl)-4-isobutyl-2-methyl-6-(naphthalen-1-ylmethyl)-2,6-dihydro-1H-pyrrolo[3,4-d]pyridazin-1-one], `CC(C)Cc1nn(C)c(=O)c2c(-c3cc(CO)ccc3F)n(Cc3cccc4ccccc34)cc12` [Example 28, 7-(2-fluoro-5-(hydroxymethyl)phenyl)-4-isobutyl-2-methyl-6-(naphthalen-1-ylmethyl)-2,6-dihydro-1H-pyrrolo[3,4-d]pyridazin-1-one] is 2-fold lower in EC50: 80 nM for the first, 40 nM for the second.

Compared with `CC(C)Cc1nn(C)c(=O)c2c(-c3cccc(CO)c3F)n(Cc3cccc4ccccc34)cc12` [Example 29, 7-(2-fluoro-3-(hydroxymethyl)phenyl)-4-isobutyl-2-methyl-6-(naphthalen-1-ylmethyl)-2,6-dihydro-1H-pyrrolo[3,4-d]pyridazin-1-one], `CC(C)Cc1nn(C)c(=O)c2c(-c3cc(CO)ccc3Cl)n(Cc3cccc4ccccc34)cc12` [Example 30, 7-(2-chloro-5-(hydroxymethyl)phenyl)-4-isobutyl-2-methyl-6-(naphthalen-1-ylmethyl)-2,6-dihydro-1H-pyrrolo[3,4-d]pyridazin-1-one] is 7.5-fold higher in EC50: 80 nM for the first, 600 nM for the second. The first is the more potent here.

`CC(C)Cc1nn(C)c(=O)c2c(-c3cccc(CO)c3)n(Cc3cccc4ccccc34)cc12` [Example 31, 7-(3-(hydroxymethyl)phenyl)-4-isobutyl-2-methyl-6-(naphthalen-1-ylmethyl)-2,6-dihydro-1H-pyrrolo[3,4-d]pyridazin-1-one] and `CC(C)Cc1nn(C)c(=O)c2c(-c3cccc(C(C)O)c3)n(Cc3cccc4ccccc34)cc12` (stereo not shown) [Example 36, 7-(3-(1-hydroxyethyl)phenyl)-4-isobutyl-2-methyl-6-(naphthalen-1-ylmethyl)-2,6-dihydro-1H-pyrrolo[3,4-d]pyridazin-1-one] are the same in EC50: 100 nM for the first, 100 nM for the second.

Compared with `CC(C)Cc1nn(C)c(=O)c2c(-c3cncc(CO)c3)n(Cc3cccc4ccccc34)cc12` [Example 32, 7-(5-(hydroxymethyl)pyridin-3-yl)-4-isobutyl-2-methyl-6-(naphthalen-1-ylmethyl)-2,6-dihydro-1H-pyrrolo[3,4-d]pyridazin-1-one], `CC(C)Cc1nn(C)c(=O)c2c(-c3csc(C(C)O)c3)n(Cc3cccc4ccccc34)cc12` (stereo not shown) [Example 33, 7-(5-(1-hydroxyethyl)thiophen-3-yl)-4-isobutyl-2-methyl-6-(naphthalen-1-ylmethyl)-2,6-dihydro-1H-pyrrolo[3,4-d]pyridazin-1-one] is 13-fold lower in EC50: 900 nM for the first, 70 nM for the second.

Compared with `CC(C)Cc1nn(C)c(=O)c2c(-c3cccc(C(C)O)n3)n(Cc3cccc4ccccc34)cc12` (stereo not shown) [Example 34, 7-(6-(1-hydroxyethyl)pyridin-2-yl)-4-isobutyl-2-methyl-6-(naphthalen-1-ylmethyl)-2,6-dihydro-1H-pyrrolo[3,4-d]pyridazin-1-one], `CC(C)Cc1nn(C)c(=O)c2c(-c3cc(C(C)O)ccc3F)n(Cc3cccc4ccccc34)cc12` (stereo not shown) [Example 35, 7-(2-fluoro-5-(1-hydroxyethyl)phenyl)-4-isobutyl-2-methyl-6-(naphthalen-1-ylmethyl)-2,6-dihydro-1H-pyrrolo[3,4-d]pyridazin-1-one] is 12-fold lower in EC50: 1000 nM for the first, 80 nM for the second.

Going from `CC(C)Cc1nn(C)c(=O)c2c(-c3csc(C(O)C(F)(F)F)c3)n(Cc3cccc4ccccc34)cc12` (stereo not shown) [Example 38, 4-isobutyl-2-methyl-6-(naphthalen-1-ylmethyl)-7-(5-(2,2,2-trifluoro-1-hydroxyethyl)thiophen-3-yl)-2,6-dihydro-1H-pyrrolo[3,4-d]pyridazin-1-one] to `CC(C)Cc1nn(C)c(=O)c2c(-c3ccc(C(O)C(F)(F)F)s3)n(Cc3cccc4ccccc34)cc12` (stereo not shown) [Example 39, 4-isobutyl-2-methyl-6-(naphthalen-1-ylmethyl)-7-(5-(2,2,2-trifluoro-1-hydroxyethyl)thiophen-2-yl)-2,6-dihydro-1H-pyrrolo[3,4-d]pyridazin-1-one], the EC50 rises from at most 20 nM to 90 nM. The first is the more potent here.

Compared with `CC(C)Cc1nn(C)c(=O)c2c(-c3cccc(C(O)C(F)(F)F)c3)n(Cc3cccc4ccccc34)cc12` (stereo not shown) [Example 40, 4-isobutyl-2-methyl-6-(naphthalen-1-ylmethyl)-7-(3-(2,2,2-trifluoro-1-hydroxyethyl)phenyl)-2,6-dihydro-1H-pyrrolo[3,4-d]pyridazin-1-one], `CC(C)Cc1nn(C)c(=O)c2c(-c3cc(CO)ccc3F)n(Cc3ccc(-c4ccccc4)cc3)cc12` [Example 41, 6-([1,1′-biphenyl]-4-ylmethyl)-7-(2-fluoro-5-(hydroxymethyl)phenyl)-4-isobutyl-2-methyl-2,6-dihydro-1H-pyrrolo[3,4-d]pyridazin-1-one] is 16-fold higher in EC50: 50 nM for the first, 800 nM for the second. The first is the more potent here.
